According to PubChem BioAssay AID1963826 (Molecular Pharmacology Branch, DTP, NCI, 2024):

System: 926638-142-R-J1-PDC complex spheroid viability
Assay: Anticancer human tumor 926638-142-R-J1-PDC patient-derived endometrial carcinoma cell line growth inhibition [POLQ]
Conditions: for IC50: curve of first compound; for viability, T/C: stronger effect = lower value
Method: Multicellular complex tumor spheroid response to Polymerase (POL) inhibitors (novobiocin, ART-558, RP6685) in combination with a variety of drugs and investigational agents in selected tumor cell lines
The POL inhibitors (novobiocin, ART-558, and RP6685) were evaluated both individually and in combination with standard of care and investigational anticancer small molecules within a complex spheroid model of solid tumors. . Complex spheroids include a stromal component modeled by human endothelial cells (HUVEC) and fibroblasts modeled by human mesenchymal stem cells (MSCs). The concentration ranges selected for each drug and investigational agent were based upon clinically achievable concentrations if the clinical Cmax of the agent was known.
Compounds. The drugs and investigational agents: novobiocin (NSC847541), ART-558 (NSC835418), RP-6685 (NSC848927), peposertib (NSC802822), ceralasertib (NSC780249), elimusertib (NSC800525), camonsertib (NSC841442), AZD-1390 (NSC803789), olaparib (NSC753686), talazoparib (NSC767125), rucaparib (NSC756644), sotorasib (NSC818433), MRTX-1133 (NSC836407), SN-38 (NSC673596), topotecan (NSC609699), epotoside (NSC141540), doxorubicin (NSC123127), gemcitabine (NSC613327), 5-fluorouracil (NSC19893), paclitaxel (NSC125973), vemurafenib (NSC761431), MSA-2 (NSC828583), SN-011 (NSC837082), adavosertib (NSC754352), prexasertib (NSC758257), carboplatin (NSC241240) and oxaliplatin (NSC266046), were obtained from the National Cancer Institute (NCI) Developmental Therapeutics Program Chemical Repository (21). The FDA-approved anticancer drug set is available from the Developmental Therapeutics Program at https://dtp.cancer.gov/organization/dscb/obtaining/. […] The stock solutions were prepared in dimethyl sulfoxide (DMSO, Sigma-Aldrich, St. Louis, MO, cat. D2650), except for the platinum compounds which were prepared in saline (Quality Biological, Gaithersburg, MD, cat. 114-055-101), at 800-fold the tested concentration and stored at -70 degrees C prior to their use. All drugs and investigational agents were tested over a range starting from a high concentration at or near the clinical Cmax and decreasing in half-log increments. If the clinical Cmax for an agent had not been determined, the highest concentration tested was 10 microM, except for SN-38, which was tested at a high concentration of 1 microM.
Cell Culture. All cells were maintained in an incubator at 37 degrees C and 5% CO2 with 95% humidity. The PDC lines were cultured according to standard operating procedures established by the NCI PDMR (https://pdmr.cancer.gov). Table 3 of the manuscript, lists the cell lines along with the number of the three cell types plated to form the mct-spheroids and media for tumor cell growth. After thawing, all PDC lines, except 997537-175-T-J1-PDC and 415267-285-R-J2-PDC, were cultured in Matrigel-coated flasks prepared with a working solution of 1X Ham's F-12 nutrient mix, without supplementation (Thermo Fisher Scientific, cat. 11765054), 100 U/mL penicillin-streptomycin (Thermo Fisher Scientific, cat. 15140122), and 2.5% Matrigel (Corning Inc., Corning, NY, cat. 354248) for the first three passages. The two PDC lines 997537-175-T-J1-PDC and 415267-285-R-J2-PDC were cultured on uncoated flasks. The 857933-349-R-J2-PDC line was cultured in 6C/Colon 1B media containing advanced DMEM/F-12 (Thermo Fisher Scientific, cat. 12634028), 10 mM HEPES (Thermo Fisher Scientific, cat. 15630080), 1X GlutaMAX supplement (Thermo Fisher Scientific, cat. 35050061), 0.1 mg/mL primocin (InvivoGen, San Diego, CA, cat. ant-pm-2), 10% defined fetal bovine serum, heat inactivated (HyClone Laboratories Inc., Logan, UT, cat. SH30070.03HI), 50% L-WRN conditioned media (ATCC, cat. CRL-3276), 1.25 mM N-Acetyl-L-cysteine (Sigma-Aldrich, cat. A9165), 10 mM nicotinamide (Sigma-Aldrich, cat. N0636), 1X B-27 supplement (Thermo Fisher Scientific, cat. 17504044), 1X N-2 supplement (Thermo Fisher Scientific, cat. […]

[1] = second compound 0.0316 µM, first compound 0.0316 µM
[2] = second compound 0.0316 µM, first compound 0.1 µM
[3] = second compound 0.0316 µM, first compound 0.316 µM
[4] = second compound 0.0316 µM, first compound 1 µM
[5] = second compound 0.0316 µM, first compound 3.16 µM
[6] = second compound 0.0316 µM, first compound 10 µM
[7] = second compound 0.1 µM, first compound 0.0316 µM
[8] = second compound 0.1 µM, first compound 0.1 µM
[9] = second compound 0.1 µM, first compound 0.316 µM
[10] = second compound 0.1 µM, first compound 1 µM
[11] = second compound 0.1 µM, first compound 3.16 µM
[12] = second compound 0.1 µM, first compound 10 µM
[13] = second compound 0.316 µM, first compound 0.0316 µM
[14] = second compound 0.316 µM, first compound 0.1 µM
[15] = second compound 0.316 µM, first compound 0.316 µM
[16] = second compound 0.316 µM, first compound 1 µM
[17] = second compound 0.316 µM, first compound 3.16 µM
[18] = second compound 0.316 µM, first compound 10 µM
[19] = second compound 1 µM, first compound 0.0316 µM
[20] = second compound 1 µM, first compound 0.1 µM
[21] = second compound 1 µM, first compound 0.316 µM
[22] = second compound 1 µM, first compound 1 µM
[23] = second compound 1 µM, first compound 3.16 µM
[24] = second compound 1 µM, first compound 10 µM
[25] = second compound 3.16 µM, first compound 0.0316 µM
[26] = second compound 3.16 µM, first compound 0.1 µM
[27] = second compound 3.16 µM, first compound 0.316 µM
[28] = second compound 3.16 µM, first compound 1 µM
[29] = second compound 3.16 µM, first compound 3.16 µM
[30] = second compound 3.16 µM, first compound 10 µM
[31] = second compound 10 µM, first compound 0.0316 µM
[32] = second compound 10 µM, first compound 0.1 µM
[33] = second compound 10 µM, first compound 0.316 µM
[34] = second compound 10 µM, first compound 1 µM
[35] = second compound 10 µM, first compound 3.16 µM
[36] = second compound 10 µM, first compound 10 µM
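Also: spheroids exposed to drugs for one week before readout.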
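For viability, T/C in this document: percent viability relative to DMSO vehicle control wells set as 100%.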

With `Nc1ccn(C2OC(CO)C(O)C2(F)F)c(=O)n1` (centres undefined) + Nc1ccc(C#CCN(C(=O)Cc2ncc(C(F)(F)F)cc2C(F)(F)F)c2ccc(F)cc2)nn1 the IC50 (second compound 0.0316 µM) was 1.06 µM, the IC50 (second compound 0.1 µM) was 0.682 µM and the IC50 (second compound 0.316 µM) was 0.948 µM. The IC50 (second compound 1 µM) was 0.701 µM, the IC50 (second compound 3.16 µM) was 0.449 µM and the IC50 (second compound 10 µM) was 2.4 µM. For the same molecule, the viability, T/C [1] was 76.5%, the viability, T/C [2] was 63.9% and the viability, T/C [3] was 57%. It also gave a viability, T/C [4] of 52.7%, a viability, T/C [5] of 43.9% and a viability, T/C [6] of 29.6%. For the same molecule, the viability, T/C [7] was 96.8%, the viability, T/C [8] was 82.5% and the viability, T/C [9] was 49.4%. It also gave a viability, T/C [10] of 44.6%, a viability, T/C [11] of 49.9% and a viability, T/C [12] of 25.6%. The viability, T/C [13] was 91.2%, the viability, T/C [14] was 72% and the viability, T/C [15] was 61.8%. It also gave a viability, T/C [16] of 49.2%, a viability, T/C [17] of 40.8% and a viability, T/C [18] of 27%. For the same molecule, the viability, T/C [19] was 81.8%, the viability, T/C [20] was 65.7% and the viability, T/C [21] was 51.1%. For the same molecule, the viability, T/C [22] was 47.5%, the viability, T/C [23] was 49.6% and the viability, T/C [24] was 28.9%. For the same molecule, the viability, T/C [25] was 80%, the viability, T/C [26] was 67.5% and the viability, T/C [27] was 49.9%. For the same molecule, the viability, T/C [28] was 42.9%, the viability, T/C [29] was 44.6% and the viability, T/C [30] was 33.3%. For the same molecule, the viability, T/C [31] was 79.6%, the viability, T/C [32] was 73.1% and the viability, T/C [33] was 66.3%. It also gave a viability, T/C [34] of 48%, a viability, T/C [35] of 55.4% and a viability, T/C [36] of 38.9%.
`CC1COCCN1c1cc(C2(S(C)(=N)=O)CC2)nc(-c2ccnc3[nH]ccc23)n1` (centres undefined) + Cc1cccc(N(C)C(=O)C2C(O)CCN2c2nc(C)cc(C(F)(F)F)c2C#N)c1 was tested, and the IC50 (second compound 0.0316 µM) was 4.55 µM, the IC50 (second compound 0.1 µM) was 5.51 µM and the IC50 (second compound 0.316 µM) was 4.7 µM. For the same molecule, the IC50 (second compound 1 µM) was 4.96 µM, the IC50 (second compound 3.16 µM) was 4.39 µM and the IC50 (second compound 10 µM) was 4.05 µM. The viability, T/C [1] was 117%, the viability, T/C [2] was 93.9% and the viability, T/C [3] was 93.8%. The viability, T/C [4] was 101%, the viability, T/C [5] was 59.2% and the viability, T/C [6] was 30.1%. It also gave a viability, T/C [7] of 104%, a viability, T/C [8] of 91.2% and a viability, T/C [9] of 100%. It also gave a viability, T/C [10] of 81.2%, a viability, T/C [11] of 76.2% and a viability, T/C [12] of 25.8%. For the same molecule, the viability, T/C [13] was 107%, the viability, T/C [14] was 90.9% and the viability, T/C [15] was 98.6%. The viability, T/C [16] was 79.5%, the viability, T/C [17] was 60.7% and the viability, T/C [18] was 29.7%. The viability, T/C [19] was 117%, the viability, T/C [20] was 101% and the viability, T/C [21] was 96.4%. For the same molecule, the viability, T/C [22] was 110%, the viability, T/C [23] was 60.5% and the viability, T/C [24] was 33.6%. It also gave a viability, T/C [25] of 91.6%, a viability, T/C [26] of 117% and a viability, T/C [27] of 95.2%. For the same molecule, the viability, T/C [28] was 103%, the viability, T/C [29] was 59% and the viability, T/C [30] was 27.4%. For the same molecule, the viability, T/C [31] was 80.4%, the viability, T/C [32] was 112% and the viability, T/C [33] was 87.8%. The viability, T/C [34] was 89%, the viability, T/C [35] was 56.7% and the viability, T/C [36] was 25.5%.
